Measurements as given in patent US20240368154A1 (GENOSCO Inc., priority 2023, published 2024).
Counter-ions that a name gives are not always drawn.

Tests used:
[1] = molecular target: T1, Recombinant ROCK1 (amino acids 1-477) (Homo sapiens, UniProt Q13464); assay: ROCK inhibition assay, LANCE Ultra TR-FRET kinase assay; format: biochemical; details: at Km of ATP (table title), method: 1 mM ATP, 50 nM ULight-CREBtide substrate, 1 hour, room temperature
T1 construct: Recombinant ROCK1 (amino acids 1-477)
T1 sequence (Q13464 1-477): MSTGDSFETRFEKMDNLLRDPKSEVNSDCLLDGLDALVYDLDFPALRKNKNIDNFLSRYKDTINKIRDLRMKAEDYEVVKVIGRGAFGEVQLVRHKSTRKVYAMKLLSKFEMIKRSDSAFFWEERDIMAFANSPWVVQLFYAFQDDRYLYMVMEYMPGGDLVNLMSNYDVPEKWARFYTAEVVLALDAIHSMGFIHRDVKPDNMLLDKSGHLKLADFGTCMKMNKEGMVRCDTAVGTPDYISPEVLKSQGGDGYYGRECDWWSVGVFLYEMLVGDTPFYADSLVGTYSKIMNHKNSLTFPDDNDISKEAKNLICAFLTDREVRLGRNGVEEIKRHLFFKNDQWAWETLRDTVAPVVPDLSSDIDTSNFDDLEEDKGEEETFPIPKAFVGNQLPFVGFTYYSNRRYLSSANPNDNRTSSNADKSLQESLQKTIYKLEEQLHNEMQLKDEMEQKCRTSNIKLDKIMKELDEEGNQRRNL
Description: (§1) Kinase IC50 was determined through an in vitro assay based on LANCE Ultra TR-FRET (Time-Resolved Fluorescence Resonance Energy Transfer) homogeneous technologies method (Perkin Elmer). Recombinant ROCK1 (amino acids 1-477) and ROCK2 (amino acids 5-554) proteins were purchased from Carna Biosciences and SignalChem. Compound activities were measured by Envision and IC50s were calculated. The assays were performed in white LUMITRAC™ 200 96 well half-area microplates from Greiner Bio-One. The kinase reaction buffer consisted of 50 mM HEPES pH 7.5, 1 mM EGTA, 10 mM MgCl2, 2 mM DTT and 0.01% Tween-20. Kinases were incubated with 50 nM (ULight-CREBtide) substrate in the presence of 1 mM (ROCK1) or 1 mM (ROCK2) of ATP. The kinase reaction was carried out for 1 hour before addition of a stopping buffer to a final of 10 mM EDTA and 0.6 nM of LANCE Ultra Europium anti-phospho-CREB (Ser133) antibody (PerkinElmer TRF0200) in LANCE detection buffer. All assay incubations were performed at room temperature, and the microplates were sealed with polyester film during that time. The reaction was incubated for 1 hour, and the signal was read in Envision in TR-FRET mode (excitation at 320 nm and emission at 615/665 nm).
(§2) As used herein, a way to describe potency of inhibitory activity (nM) is a value of inhibitory activity at 50% (IC50).

[2] = molecular target: T2, Recombinant ROCK2 (amino acids 5-554) (Homo sapiens, UniProt O75116); assay: as above; format: biochemical; details: at Km of ATP (table title), method: 1 mM ATP, 50 nM ULight-CREBtide substrate, 1 hour, room temperature
T2 construct: ROCK2 (amino acids 5-554)
T2 sequence (O75116 5-554): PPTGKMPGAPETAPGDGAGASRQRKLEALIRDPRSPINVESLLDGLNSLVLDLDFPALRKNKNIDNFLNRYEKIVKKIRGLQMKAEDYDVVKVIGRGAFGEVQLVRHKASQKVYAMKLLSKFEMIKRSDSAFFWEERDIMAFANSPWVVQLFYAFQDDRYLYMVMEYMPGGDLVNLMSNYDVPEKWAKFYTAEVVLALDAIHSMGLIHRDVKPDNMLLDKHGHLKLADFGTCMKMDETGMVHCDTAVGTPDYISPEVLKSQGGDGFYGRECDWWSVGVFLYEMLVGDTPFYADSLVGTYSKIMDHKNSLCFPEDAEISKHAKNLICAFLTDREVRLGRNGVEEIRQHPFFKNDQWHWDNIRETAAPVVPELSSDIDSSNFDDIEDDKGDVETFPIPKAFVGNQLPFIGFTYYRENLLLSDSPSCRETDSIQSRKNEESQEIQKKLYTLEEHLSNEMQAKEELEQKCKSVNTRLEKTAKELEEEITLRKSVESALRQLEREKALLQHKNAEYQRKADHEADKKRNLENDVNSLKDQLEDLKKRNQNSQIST
Description: as §1, §2

| Structure (SMILES) | IC50 [1] [nM] | IC50 [2] [nM] | IC50 ([1]; hydrochloride) [nM] | IC50 ([2]; hydrochloride) [nM] |
| --- | --- | --- | --- | --- |
| C[C@@H](O)Cn1cc(C(=O)C2COc3ccc(F)cc3C2)c2cnc(-c3cn[nH]c3F)nc21 (stereo partly drawn) [Compound 1-48] | < 10 | < 10 | – | – |
| C[C@@H](O)Cn1cc(C(=O)[C@@H]2COc3ccc(F)cc3C2)c2cnc(-c3cn[nH]c3F)nc21 [Compound 1-49] | < 10 | < 10 | – | – |
| C[C@@H](O)Cn1cc(C(=O)[C@@H]2COc3ccc(F)cc3C2)c2cnc(-c3cn[nH]c3F)nc21 [Compound 1-50] | < 10 | < 10 | – | – |
| C[C@@H](O)Cn1cc(C(=O)[C@@H]2COc3ccc(F)cc3C2)c2cnc(-c3cn[nH]c3F)nc21 [Compound 1-51] | < 10 | < 10 | – | – |
| COc1[nH]ncc1-c1ncc2c(C(=O)C3COc4ccc(F)cc4C3)cn(CC(C)(C)O)c2n1 (stereo not drawn) [Compound 1-52] | 51 to 500 | 11 to 50 | – | – |
| COc1[nH]ncc1-c1ncc2c(C(=O)C3COc4ccc(Cl)cc4C3)cn(C[C@H](C)O)c2n1 (stereo partly drawn) [Compound 1-53] | 51 to 500 | 11 to 50 | – | – |
| CC(C)(O)Cn1cc(C(=O)C2COc3ccc(Cl)cc3C2)c2cnc(-c3cn[nH]c3F)nc21 (stereo not drawn) [Compound 1-54] | 11 to 50 | < 10 | – | – |
| CC(C)(O)Cn1cc(C(=O)[C@@H]2COc3ccc(Cl)cc3C2)c2cnc(-c3cn[nH]c3F)nc21 [Compound 1-55] | < 10 | < 10 | – | – |
| CC(C)(O)Cn1cc(C(=O)C2COc3ccc(Cl)cc3C2)c2cnc(-c3cn[nH]c3Cl)nc21 (stereo not drawn) [Compound 1-57] | < 10 | < 10 | – | – |
| COc1[nH]ncc1-c1ncc2c(C(=O)C3COc4ccc(Cl)cc4C3)cn(CC(C)(C)O)c2n1 (stereo not drawn) [Compound 1-58] | 11 to 50 | < 10 | – | – |
| COc1n[nH]cc1-c1cc2c(cn1)c(C(=O)C1COc3ccc(Cl)cc3C1)cn2CCO (stereo not drawn) [Compound 1-59, hydrochloride] | – | – | 51 to 500 | 11 to 50 |
| COc1[nH]ncc1-c1cc2c(cn1)c(C(=O)C1COc3ccc(Cl)cc3C1)cn2CCN(C)C (stereo not drawn) [Compound 1-60, (6-chlorochroman-3-yl)(1-(2-(dimethylamino)ethyl)-6-(5-methoxy-1H-pyrazol-4-yl)-1H-pyrrolo[3,2-c]pyridin-3-yl)methanone metanesulfonic acid] | < 10 | < 10 | – | – |
| O=C(c1cn(CCO)c2cc(-c3cn[nH]c3)ccc12)C1COc2ccccc2O1 (stereo not drawn) [Compound 2-1, 2,3-Dihydro-1,4-benzodioxin-3-yl-[1-(2-hydroxyethyl)-6-(1H-pyrazol-4-yl)indol-3-yl]methanone] | < 10 | < 10 | – | – |
| O=C(c1cn(CCO)c2cc(-c3cn[nH]c3)ccc12)C1COc2ccc(Cl)cc2C1 (stereo not drawn) [Compound 2-2, (6-Chlorochroman-3-yl)-[1-(2-hydroxyethyl)-6-(1H-pyrazol-4-yl)indol-3-yl]methanone] | < 10 | < 10 | – | – |
| O=C(c1cn(CCO)c2cc(-c3c[nH]c4ncccc34)ccc12)C1COc2ccccc2O1 (stereo not drawn) [Compound 2-3] | 51 to 500 | 11 to 50 | – | – |
| O=C(c1cn(CCO)c2cc(-c3c[nH]nc3Cl)ccc12)C1COc2ccccc2O1 (stereo not drawn) [Compound 2-4] | < 10 | < 10 | – | – |
| O=C(c1cn(CCO)c2cc(-c3c[nH]c4ncccc34)ccc12)C1COc2ccccc2C1 (stereo not drawn) [Compound 2-5] | 51 to 500 | 11 to 50 | – | – |
| O=C(c1cn(CCO)c2cc(-c3c[nH]nc3Cl)ccc12)C1COc2ccccc2C1 (stereo not drawn) [Compound 2-6] | 11 to 50 | < 10 | – | – |
| O=C(c1cn(CCO)c2cc(-c3cn[nH]c3)ccc12)C1COc2ccc(F)cc2C1 (stereo not drawn) [Compound 2-7] | < 10 | < 10 | – | – |
| COc1ccc2c(c1)OCC(C(=O)c1cn(CCO)c3cc(-c4cn[nH]c4)ccc13)C2 (stereo not drawn) [Compound 2-8] | 51 to 500 | 51 to 500 | – | – |
| O=C(c1cn(CCO)c2cc(-c3cn[nH]c3)ccc12)C1COc2ccc(F)cc2O1 (stereo not drawn) [Compound 2-9] | 11 to 50 | < 10 | – | – |
| O=C(c1cn(CCO)c2cc(-c3cn[nH]c3)ccc12)C1COc2cc(Cl)ccc2O1 (stereo not drawn) [Compound 2-10] | 51 to 500 | 11 to 50 | – | – |
| O=C(c1cn(CCO)c2cc(-c3cn[nH]c3)ccc12)C1COc2cc(F)ccc2O1 (stereo not drawn) [Compound 2-11] | 51 to 500 | < 10 | – | – |

| Structure (SMILES) | IC50 [1] [nM] | IC50 [2] [nM] | IC50 ([1]; hydrochloride) [nM] | IC50 ([2]; hydrochloride) [nM] |
| --- | --- | --- | --- | --- |
| O=C(c1cn(CCO)c2cc(-c3cn[nH]c3)ccc12)C1COc2cc(Cl)c(Cl)cc2O1 (stereo not drawn) [Compound 2-12] | 51 to 500 | 51 to 500 | – | – |
| O=C(c1cn(CCO)c2cc(-c3cn[nH]c3)ccc12)C1COc2ccc(Cl)cc2O1 (stereo not drawn) [Compound 2-13] | 51 to 500 | 11 to 50 | – | – |
| COc1ccc2c(c1)OC(C(=O)c1cn(CCO)c3cc(-c4cn[nH]c4)ccc13)CO2 (stereo not drawn) [Compound 2-14] | 11 to 50 | < 10 | – | – |
| COc1ccc2c(c1)CC(C(=O)c1cn(CCO)c3cc(-c4c[nH]nc4Cl)ccc13)CO2 (stereo not drawn) [Compound 2-15] | < 10 | < 10 | – | – |
| O=C(c1cn(CCO)c2cc(-c3c[nH]nc3F)ccc12)C1COc2ccc(Cl)cc2C1 (stereo not drawn) [Compound 2-16] | 11 to 50 | < 10 | – | – |
| O=C(c1cn(CCO)c2cc(-c3cn[nH]c3)ccc12)C1COc2ccccc2C1 (stereo not drawn) [Compound 2-23] | 11 to 50 | 11 to 50 | – | – |
| COCCn1nc(C(=O)C2COc3ccccc3C2)c2ccc(-c3cn[nH]c3)cc21 (stereo not drawn) [Compound 2-24, Chroman-3-yl-[1-(2-methoxyethyl)-6-(1H-pyrazol-4-yl)indazol-3-yl]methanone] | 11 to 50 | < 10 | – | – |
| COCCn1nc(C(=O)[C@@H]2COc3ccccc3O2)c2ccc(-c3cn[nH]c3)cc21 [Compound 2-25] | 11 to 50 | 11 to 50 | – | – |
| O=C(c1nn(CCO)c2cc(-c3c[nH]nc3C(F)(F)F)ccc12)C1COc2ccc(F)cc2C1 (stereo not drawn) [Compound 2-26] | 51 to 500 | 51 to 500 | – | – |
| COc1n[nH]cc1-c1ccc2c(C(=O)C3COc4ccc(F)cc4C3)nn(CCO)c2c1 (stereo not drawn) [Compound 2-27] | 11 to 50 | < 10 | – | – |
| CC(C)c1n[nH]cc1-c1ccc2c(C(=O)C3COc4ccc(F)cc4C3)nn(CCO)c2c1 (stereo not drawn) [Compound 2-28] | > 501 | > 501 | – | – |
| COc1n[nH]cc1-c1ccc2c(C(=O)C3COc4ccc(Cl)cc4C3)nn(CC#N)c2c1 (stereo not drawn) [Compound 2-29] | > 501 | 51 to 500 | – | – |
| COc1n[nH]cc1-c1ccc2c(C(=O)C3Cc4ccccc4O3)nn(CCO)c2c1 (stereo not drawn) [Compound 2-30] | 51 to 500 | 51 to 500 | – | – |
| COc1n[nH]cc1-c1ccc2c(C(=O)C3(C)COc4ccccc4O3)nn(CCO)c2c1 (stereo not drawn) [Compound 2-31] | 51 to 500 | 51 to 500 | – | – |
| COc1n[nH]cc1-c1ccc2c(C(=O)c3coc4ccccc34)nn(CCO)c2c1 [Compound 2-32] | > 501 | 51 to 500 | – | – |
| COc1n[nH]cc1-c1ccc2c(C(=O)C3COc4ccc(Cl)cc4C3)nn(CC(C)O)c2c1 (stereo not drawn) [Compound 2-33] | 51 to 500 | 11 to 50 | – | – |
| COc1n[nH]cc1-c1ccc2c(C(=O)C3COc4ccc(Cl)cc4C3)nn(C[C@@H](C)O)c2c1 (stereo partly drawn) [Compound 2-34] | 51 to 500 | 11 to 50 | – | – |
| COc1n[nH]cc1-c1ccc2c(C(=O)C3COc4ccc(Cl)cc4C3)nn(C[C@H](C)O)c2c1 (stereo partly drawn) [Compound 2-35] | 51 to 500 | 11 to 50 | – | – |
| O=C(c1nn(CCO)c2cc(-c3cn[nH]c3)ccc12)C1COc2ccc(F)cc2C1 (stereo not drawn) [Compound 3-1, (6-fluorochroman-3-yl)(1-(2-hydroxyethyl)-6-(1H-pyrazol-4-yl)-1H-indazol-3-yl)methanone] | 11 to 50 | < 10 | – | – |
| O=C(c1nn(CCO)c2cc(-c3cn[nH]c3)ccc12)C1COc2ccccc2C1 (stereo not drawn) [Compound 3-2] | 11 to 50 | < 10 | – | – |
| O=C(c1nn(CCO)c2cc(-c3cn[nH]c3)ccc12)C1COc2ccc(F)cc2O1 (stereo not drawn) [Compound 3-3] | 11 to 50 | < 10 | – | – |
| O=C(c1nn(CCO)c2cc(-c3cn[nH]c3)ccc12)C1COc2ccc(Cl)cc2O1 (stereo not drawn) [Compound 3-4] | 51 to 500 | < 10 | – | – |
